Measurements: ChEMBL document CHEMBL3603818, “Hedgehog inhibitors from Withania somnifera” (Bioorg Med Chem Lett, 2015)
Active and inactive are the calls of the source. No cut-off for these calls is given here.

Tests used:
HaCaT [1] = assay: Inhibition of BCL-2 expression in human HaCaT cells expressing GLI1 at 1.5 uM after 12 hrs by Western blotting; format: functional, cell-based
DU-145 = assay: Cytotoxicity against human DU145 cells after 24 hrs by FMCA; format: functional, cell-based; conditions: DU-145, 24 h
[2] = Inhibition of hedgehog/GLI1-mediated transcriptional activity in human HaCaT cells after 12 hrs by luciferase assay; format: cell-based
[3] = Cytotoxicity against human PANC1 cells after 24 hrs by FMCA; format: functional, cell-based; conditions: PANC-1, 24 h
PANC-1 [4] = assay: Inhibition of PTCH expression in human PANC1 cells at 1 uM after 12 hrs by Western blotting; format: functional, cell-based
[5] = Cytotoxicity against mouse C3H10T1/2 cells after 24 hrs by FMCA; format: cell-based; conditions: C3H 10T1/2, 24 h
HaCaT [6] = assay: Inhibition of PTCH expression in human HaCaT cells expressing GLI1 at 1.5 uM after 12 hrs by Western blotting; format: functional, cell-based
PANC-1 [7] = assay: Inhibition of BCL-2 expression in human PANC1 cells at 1 uM after 12 hrs by Western blotting; format: functional, cell-based
[8] = biological target: T1, Zinc finger protein GLI1 (Homo sapiens) (UniProt P08151); assay: Inhibition of GST-GLI1 (unknown origin) interaction with DNA assessed as reduction of protein-DNA complex level at 100 uM after 20 mins by electrophoretic mobility shift assay
T1 sequence (whole entry): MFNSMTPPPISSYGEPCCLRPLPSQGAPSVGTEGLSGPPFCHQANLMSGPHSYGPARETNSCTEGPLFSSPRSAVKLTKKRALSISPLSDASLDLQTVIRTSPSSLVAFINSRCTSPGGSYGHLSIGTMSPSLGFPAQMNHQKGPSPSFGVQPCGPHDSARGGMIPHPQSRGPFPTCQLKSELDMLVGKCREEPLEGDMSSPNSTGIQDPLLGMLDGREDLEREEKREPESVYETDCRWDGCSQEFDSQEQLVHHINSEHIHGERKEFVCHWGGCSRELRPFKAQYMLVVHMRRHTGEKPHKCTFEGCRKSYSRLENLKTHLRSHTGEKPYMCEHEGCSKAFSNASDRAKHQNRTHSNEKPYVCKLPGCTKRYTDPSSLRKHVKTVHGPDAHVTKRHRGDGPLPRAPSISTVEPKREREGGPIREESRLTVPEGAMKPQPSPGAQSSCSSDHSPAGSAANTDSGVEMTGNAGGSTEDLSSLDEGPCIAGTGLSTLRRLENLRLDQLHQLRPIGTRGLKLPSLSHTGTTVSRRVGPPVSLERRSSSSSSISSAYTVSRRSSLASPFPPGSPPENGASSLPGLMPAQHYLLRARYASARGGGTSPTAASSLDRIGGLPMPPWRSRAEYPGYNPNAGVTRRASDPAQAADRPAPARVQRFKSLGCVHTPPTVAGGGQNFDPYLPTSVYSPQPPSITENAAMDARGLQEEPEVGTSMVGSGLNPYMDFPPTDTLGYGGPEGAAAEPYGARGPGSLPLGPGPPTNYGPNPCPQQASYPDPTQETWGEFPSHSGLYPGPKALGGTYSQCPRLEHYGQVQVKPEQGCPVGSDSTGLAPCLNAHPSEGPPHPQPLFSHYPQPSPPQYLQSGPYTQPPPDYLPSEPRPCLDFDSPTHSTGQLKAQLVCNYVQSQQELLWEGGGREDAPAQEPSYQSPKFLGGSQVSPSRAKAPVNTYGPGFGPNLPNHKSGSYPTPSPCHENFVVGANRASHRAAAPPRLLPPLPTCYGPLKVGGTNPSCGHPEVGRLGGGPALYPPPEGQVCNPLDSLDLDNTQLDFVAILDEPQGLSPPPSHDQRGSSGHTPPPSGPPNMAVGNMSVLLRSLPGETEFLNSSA

MCF7 = assay: Cytotoxicity against human MCF7 cells after 24 hrs by FMCA; format: functional, cell-based; conditions: MCF7, 24 h
PANC-1 [9] = assay: Inhibition of PTCH expression in human PANC1 cells at 5 uM after 12 hrs by Western blotting; format: functional, cell-based
PANC-1 [10] = assay: Inhibition of BCL-2 expression in human PANC1 cells at 5 uM after 12 hrs by Western blotting; format: functional, cell-based

CC1=C(CO)C(=O)O[C@@H]([C@@H](C)[C@H]2CC[C@H]3[C@@H]4C[C@H]5O[C@]56[C@@H](O)C=CC(=O)[C@]6(C)[C@H]4CC[C@]23C)C1 [WITHAFERIN A]
inhibition (HaCaT [1]): Active
IC50 (DU-145): 2.5 µM
IC50 [2]: 500 nM
IC50 [3]: 1.6 µM
inhibition (PANC-1 [4]): Active
IC50 [5]: 4.9 µM
inhibition (HaCaT [6]): Active
inhibition (PANC-1 [7]): Active
inhibition [8]: Active
IC50 (MCF7): 6.3 µM

CC1=C(CO)C(=O)O[C@@H]([C@@H](C)[C@H]2CC[C@H]3[C@@H]4CC=C5[C@@H](O)C=CC(=O)[C@]5(C)[C@H]4CC[C@]23C)C1
IC50 (DU-145): 10.6 µM
IC50 [2]: 1800 nM
IC50 [3]: 11.9 µM
IC50 [5]: > 25 µM
IC50 (MCF7): 22.6 µM

CO[C@H]1CC(=O)[C@]2(C)[C@H]3CC[C@]4(C)[C@@H]([C@H](C)[C@H]5CC(C)=C(CO)C(=O)O5)CC[C@H]4[C@@H]3C[C@H]3O[C@]32[C@H]1O
IC50 (DU-145): > 25 µM
IC50 [2]: > 25000 nM
IC50 [3]: > 25 µM
IC50 [5]: > 25 µM
IC50 (MCF7): > 25 µM

CC1=C(CO)C(=O)O[C@@H]([C@@H](C)[C@H]2CC[C@H]3[C@@H]4C[C@H]5O[C@]56[C@@H](O)[C@@H](OS(=O)(=O)O)CC(=O)[C@]6(C)[C@H]4CC[C@]23C)C1
IC50 (DU-145): 21.7 µM
IC50 [2]: 2200 nM
IC50 [3]: 14.8 µM
IC50 [5]: 21 µM
IC50 (MCF7): 17.9 µM

CC1=C(CO)C(=O)O[C@@H]([C@@H](C)[C@H]2CC[C@H]3[C@@H]4C[C@H]5O[C@]56[C@@H](O)CCC(=O)[C@]6(C)[C@H]4CC[C@]23C)C1
IC50 (DU-145): > 25 µM
IC50 [2]: 14800 nM
IC50 [3]: > 25 µM
IC50 [5]: > 25 µM
inhibition [8]: Active
IC50 (MCF7): > 25 µM

CC1=C(C)C(=O)O[C@@H]([C@@H](C)[C@H]2CC[C@H]3[C@@H]4C[C@H]5O[C@]56[C@@H](O)C=CC(=O)[C@]6(C)[C@H]4CC[C@]23C)C1
inhibition (PANC-1 [9]): Active
inhibition (HaCaT [1]): Active
IC50 (DU-145): 1.8 µM
IC50 [2]: 600 nM
IC50 [3]: 1.1 µM
inhibition (PANC-1 [10]): Active
IC50 [5]: 4.1 µM
inhibition (HaCaT [6]): Active
IC50 (MCF7): 2.8 µM
